# How the values were obtained:
# [1] = test system: POROL (Portulaca oleracea, portulaca); assay: Post-emergence herbicidal activity of mixtures in forage crops, greenhouse (Example IV); assay type: in vivo, Portulaca oleracea L.; details: Table 58 (forage), foliar-applied, after approximately 21 days
# Experimental: Seeds or root cuttings of the desired test plant species were planted in Sun Gro MetroMix® 306 planting mixture, which typically has a pH of 6.0 to 6.8 and an organic matter content of about 30 percent, in plastic pots with a surface area of 126.6 square centimeters (cm^2). When required to ensure good germination and healthy plants, a fungicide treatment and/or other chemical or physical treatment was applied. The plants were grown for 14-60 days in a greenhouse with an approximate 14 hour photoperiod which was maintained at approximately 28° C. during the day and 24° C. during the night. Nutrients and water were added on a regular basis and supplemental lighting was provided with overhead metal halide 1000-Watt lamps as necessary. The plants were employed for testing when they reached the BBCH13 to BBCH23 leaf stage.
# Treatments consisted of the benzyl ester of 4-amino-3-chloro-5-fluoro-6-(4-chloro-2-fluoro-3-methoxy-phenyl)pyridine-2-carboxylic acid (Compound A), formulated as a SC, and a second herbicide alone and in combination.
# A measured aliquot of Compound A was placed in 25 milliliter (mL) glass vial and diluted in a volume of 1.25% (v/v) Agri-dex crop oil concentrated to obtain stock solutions. Compound requirements are based upon a 12 mL application volume at a rate of 187 liters per hectare (L/ha). Spray solutions of the second cereal herbicide and experimental compound mixtures were prepared by adding the stock solutions to the appropriate amount of dilution solution to form 12 mL spray solution with active ingredients in two- and three-way combinations. […]
# The treated plants and control plants were placed in a greenhouse as described above and watered by sub-irrigation to prevent wash-off of the test compounds. After approximately 21 days, the condition of the test plants, as compared with that of the control plants, was determined visually and scored on a scale of 0 to 100 percent where 0 corresponds to no injury and 100 corresponds to complete kill. […]
# [2] = test system: ECHCO (Echinochloa colona, junglerice); assay: In-water applied weed control, transplanted paddy rice, greenhouse (Example II); assay type: in vivo, Echinochloa colona (L.) Link
# Experimental: Weed seeds or nutlets of the desired test plant species were planted in puddled soil (mud) prepared by mixing a shredded, non-sterilized mineral soil (50.5 percent silt, 25.5 percent clay, and 24 percent sand, with a pH of about 7.6 and an organic matter content of about 2.9 percent) and water at a 1:1 volumetric ratio. The prepared mud was dispensed in 365 mL aliquots into 16-ounce (oz.) non-perforated plastic pots with a surface area of 86.59 square centimeters (cm^2) leaving a headspace of 3 centimeters (cm) in each pot. Rice seeds were planted in Sun Gro MetroMix® 306 planting mixture, which typically has a pH of 6.0 to 6.8 and an organic matter content of about 30 percent, in plastic plug trays. Seedlings at the second or third leaf stage of growth were transplanted into 860 mL of mud contained in 32-oz. non-perforated plastic pots with a surface area of 86.59 cm^2 4 days prior to herbicide application. The paddy was created by filling the headspace of the pots with 2.5 to 3 cm of water. When required to ensure good germination and healthy plants, a fungicide treatment and/or other chemical or physical treatment was applied. The plants were grown for 4-22 days in a greenhouse with an approximate 14 h photoperiod which was maintained at about 29′C during the day and 26° C. during the night. Nutrients were added as Osmocote® (19:6:12, N:P:K+minor nutrients) at 2 g per 16-oz. pot and 4 g per 32-oz. pot. Water was added on a regular basis to maintain the paddy flood, and supplemental lighting was provided with overhead metal halide 1000-Watt lamps as necessary. The plants were employed for testing when they reached the first through fourth true leaf stage.
# Treatments consisted of the acid or esters of 4-amino-3-chloro-5-fluoro-6-(4-chloro-2-fluoro-3-methoxy-phenyl)pyridine-2-carboxylic acid (compound A) each formulated as an SC and various herbicidal components alone and in combination. Forms of compound A were applied on an acid equivalent basis.
# Other herbicidal components were applied on an active ingredient basis and included acetolactate synthase (ALS)-inhibiting herbicides (sulfonylurea chemical class), azimsulfuron formulated as Gulliver®, bensulfuron-methyl formulated as Londax® 60DF, cyclosulfamuron (technical grade materail), ethoxysulfuron formulated as Sunrice® 15 WDG, flucetosulfuron formulated as Sukedachi® 1KG G, imazosulfuron formulated as Brazzos®, metsulfuron-methyl formulated as Lorate®, nicosulfuron formulated as Accent®, orthosulfamuron formulated as Strada® WG, propyrisulfuron formulated as Zeta One®, and rimsulfuron formulated as Matrix® WG.
# Treatment requirements for each compound or herbicidal component were calculated based upon the rates being tested, the concentration of active ingredient or acid equivalent in the formulation, an application volume of 2 mL per component per pot, and an application area of 86.59 cm^2 per pot.
# For formulated compounds, a measured amount was placed in an individual 100 or 200 mL glass vial and was dissolved in a volume of 1.25% (v/v) Agri-Dex® crop oil concentrate to obtain application solutions.
# For technical grade compounds, a weighed amount was placed in an individual 100 to 200 mL glass vial and was dissolved in a volume of acetone to obtain concentrated stock solutions. […] The concentrated stock solutions obtained were diluted with an equivalent volume of an aqueous mixture containing 2.5% (v/v) crop oil concentrate so that the final application solutions contained 1.25% (v/v) crop oil concentrate.
# Applications were made by injecting with a pipetter appropriate amounts of the application solutions, individually and sequentially, into the aqueous layer of the paddy. Control plants were treated in the same manner with the solvent blank. Applications were made so that all treated plant material received the same concentrations of acetone and crop oil concentrate. […]
smiles,measurement,setting,value
COc1c(Cl)ccc(-c2nc(C(=O)OCc3ccccc3)c(Cl)c(N)c2F)c1F [Compound A Benzyl Ester],Weed Control POROL Obs,[1]; 2.2 gai/ha alone,47%
same,Weed Control POROL Obs,[1]; 4.4 gai/ha alone,60%
same,Visual Weed Control (%) - 21 DAA ECHCO Obs,"[2]; Table 39, 4.38 gae/ha alone",45%
same,Visual Weed Control (%) - 21 DAA ECHCO Obs,"[2]; Table 39, 8.75 gae/ha alone",30%
same,Visual Weed Control (%) - 21 DAA ECHCO Obs,"[2]; Table 39, 17.5 gae/ha alone",95%

# From patent US8871681B2, “Herbicidal compositions comprising 4-amino-3-chloro-5-fluoro-6-(4-chloro-2-fluoro-3-methoxyphenyl) pyridine-2-carboxylic acid or a derivative thereof and certain sulfonylureas” (Dow AgroSciences LLC, priority 2012, dated 2014)
